# Counter-ions that a name gives are not always drawn. Like-named read-outs stand apart in the source and are kept apart here.
# Columns and labels:
# [1] = tested on: mTORC1 and mTORC2 pathways; test: Screening of GSK3 inhibitors: phospho-S6 / phospho-AKT staining (activation of mTORC1 and mTORC2 pathways); type: cell-based, human; conditions: for frequency of pS6+pAKT+ cells / activation of mTORC pathway: FIG. 12A, in words; for Fold change in pS6+pAKT+cells (relative to DMSO): 12 hs at optimal dose, washout, 48 hs anti-CD3/anti-CD28, symbols not defined
# Protocol: (§1) FIG. 12. Screening molecules for reprogramming human CD8^+ T cells Total CD8^+ T cells were purified and treated for 12 hs with titrated doses of GSK3 inhibitors or DMSO vehicle control. After drug washout, cells were stimulated for 48 hs with plate-bound anti-CD3/anti-CD28 antibodies (at 1 mg/mL), followed by flow cytometry analyses. A. Upon stimulation, intracellular cytokine and phospho-protein staining was performed, the latter for the detection of phospho-S6 and phospho-AKT proteins (indicative of activation of mTORC1 and mTORC2 pathways, respectively). The fold change in the frequency of IFN-γ^+TNF-α^+ and pS6^+pAKT^+ cells induced by the treatment with each GSK3 inhibitor, relative to DMSO control, was analyzed. […] B. Fold change in the expression of the indicated markers and memory phenotypes induced by anti-CD3/anti-CD28 antibody stimulation relative to unstimulated cells (at least 3 donors per condition). TCM: T central memory; TEM: T effector memory; TTM: T transitional memory; TTE: T terminal effector; TSCM: T stem cell memory.
# (§2) For reprogramming of CD8^+ T cells followed by polyclonal stimulation, cells were isolated by negative magnetic bead sorting (Stemcell Technologies). For reprogramming of CD8^+ T cells followed by antigen-specific stimulation, PBMC and magnetically separated CD8^+ T cells and non-CD8^+ T cells were used (REAlease® CD8 MicroBead Kit; Miltenyi Biotech). Then, CD8^+ T cells were treated with a GSK3 inhibitor (6-Bromoindirubin-3′-oxime; BIO; Sigma-Aldrich), at 3 μM, or an equivalent concentration of dimethyl sulfoxide (DMSO) vehicle control, in complete medium, for 12 hs at 37° C., 5% CO2. Non-CD8 cells were left resting during this time in complete medium. CD8^+ T cells were washed with complete medium and stimulated with the peptide pool in presence of non-CD8 T cells.
# (§3) In some experiments, cells were culture in RPMI medium without glucose (MP Biomedicals). CD8^+ T cell proliferation was evaluated by CFSE dilution (at 1 μM, Thermo Fisher Scientific). In additional experiments, reprogrammed CD8^+ T cells were stimulated with IL-7 or IL-15 (both at 10 ng/mL; R&D) and cultured for 6 days. In all the cases, cells were cultured at a density of 2×10^6 cells/mL.
# (§4) After cultures, cells were stained with the LIVE/DEAD Fixable Aqua Dead Cell Stain kit (Thermo Fisher Scientific), with anti-CD3 Alexa Fluor 700 or APC efluor 780 and anti-CD8 PE Texas Red antibodies, accordingly. […] In some experiments, cells were stained with APC-conjugated dextramers (Immudex), incubated for 15 minutes at room temperature. Additional surface staining panels included anti-HLA-DR Superbright 780, anti-CD38 Superbright 600, anti-PD-1 BV421, anti-LAG-3 APC efluor 780, anti-TIM3 PE Cy7, and anti-TIGIT BV786 antibodies, or anti-CD122 PE and anti-CD215 FITC antibodies. The BD Transcription Factor Buffer Set kit (BD Biosciences) was used for cell fixation and permeabilization. […] Cell acquisition was performed using LSR II or ARIA III flow cytometers (both from BD Biosciences), and data were analyzed with FlowJo v.10 software (BD Biosciences).
# (§5) The inventors explored GSK3 inhibitors to expand the array of molecules that could be used for CD8^+ T cell reprogramming. They implemented a screening approach that combined the evaluation of cytokine polyfunctionality of CD8^+ T cells (IFN-γ+TNFα+) vs the activation of mTORC1 and mTORC2 pathways (pS6+pAKT+) upon treatment with the GSK3 inhibitors and subsequent polyclonal stimulation.
# human CD8+ T cells [2] = test: Screening of GSK3 inhibitors: cytokine polyfunctionality (IFN-γ+TNF-α+) of CD8+ T cells after anti-CD3/anti-CD28 stimulation; type: cell-based; conditions: for Fold change in IFN-γ+ TNF-a+cells (relative to DMSO): 12 hs at optimal dose, washout, 48 hs anti-CD3/anti-CD28, symbols not defined; for IFN-γ+TNF-α+ cells (polyfunctionality) relative to vehicle control: FIG. 12A, in words
# Protocol: as §1, §2, §3, §4, §5
# GSK3 [3] = conditions: cited from earlier work; for IC50: GSK3 inhibitor, review Front. Mol. Neurosci. 2011
# human CD8+ T cells [4] = test: Screening of GSK3 inhibitors: markers and memory phenotypes by flow cytometry; type: cell-based
# Protocol: as §1, §2, §3, §4
# [5] = tested on: CD8+ T cells from people without HIV; test: In vitro reprogramming of bulk CD8+ T cells, phenotype without further stimulation; type: cell-based, human; conditions: BIO and TWS119 in parallel, 3 μM, 12 hs
# Protocol: FIG. 1. Induction of stem-like CD8^+ T cells with high survival capacity and polyfunctionality by in vitro reprogramming. A. CD8^+ T cells from people without HIV were incubated with medium, vehicle control, or a GSK3 inhibitor, for 12 hs and the phenotype was evaluated by flow cytometry. A representative donor from a total of 4 is shown. B. Frequencies of CD8^+ T cell subpopulations after each treatment. C. Fold change of CD8^+ T cell subpopulations after treatment with vehicle control or a GSK3 inhibitor, relative to medium alone condition (n=4). D. Expression of TCF-1 in CD8^+ T cell subpopulations (n=4). E. The expression of the indicated markers in cells pre-treated with vehicle control or a GSK3 inhibitor was evaluated by flow cytometry. The fold change in the expression induced by 48 hs anti-CD3/CD28 stimulation, relative to unstimulated cells, is shown (n=5). F. Left: Flow cytometry analysis of dead cells (Aqua Live/Dead^+) among total and T-bet+CD8^+ T cells. Right: Fold change in dead CD8^+ T cells induced by anti-CD3/CD28 stimulation, relative to the unstimulated condition (n=5). G. Frequencies of granzyme B^+, TL-2^+, IFN-γ^+, and TNF-α^+CD8^+ T cells after anti-CD3/CD28 stimulation. H. Expression of 1 to 4 functions in CD8^+ T cells after anti-CD3/CD28 stimulation (n=5). I. After reprogramming with the GSK3 inhibitor, CD8^+ T cells were stimulated for 48 hs with anti-CD3/CD28, followed by wash and resting for 5 days. Then, cells were restimulated for another 48 hs with anti-CD3/CD28. Left: Flow cytometry analysis of proliferating (CFSE dilution) CD8^+ T cells. Right: Frequencies of CD8^+ T cells with 0, 1-3 or ≥4 cell divisions (n=9). J. Frequency of the total HCMV pp65-specific CD8^+ T cell response (IFN-γ^+ or CD107a^+ or TNF-α^+), after vehicle control or GSK3 inhibitor treatment, followed by HCMV pp65 peptides stimulation for 6 hs (n=6). K. Frequencies of CD8^+ T cell subpopulations among HCMV pp65-specific CD8^+ T cells (n=6). L. Expression of IFN-γ, CD107a, and TNF-α in HCMV pp65-specific CD8^+ T cells (n=6). M. Frequency of the total HCMV pp65-specific CD8^+ T cell response after HCMV pp65 peptides stimulation for 6 days (n=6). *P<0.05; **P≤0.01. NS: Not statistically significant. TSCM: Stem cell memory; TCM: Central memory; TTM: Transitional memory; TEM: Effector memory; TTE: Terminal effector.
# FIG. 2. A. Flow cytometry gating strategy used to identify CD8^+ T cell subpopulations: Naïve, Stem cell memory (TSCM), Central memory (TCM), Transitional memory (TTM), Effector memory (TEM), and Terminal effector (TTE). B. Expression of CCR7, CD27 and TCF-1 in total CD8^+ T cells after treatment with vehicle control, or the GSK3 inhibitors BIO or TWS119, for 12 hs. The median fluorescence intensity of each marker is depicted. C. Fold change in TSCM, TCM and TEM cells induced by BIO or TWS119, relative to vehicle control (n=3 people without HIV). D. Fold change in T-bet^+ cells among TSCM and TCM induced by anti-CD3/CD28 stimulation, relative to vehicle control, in cells previously treated with vehicle control, BIO or TWS119 (n=3). E. Fold change in T-bet^+ cells among naïve/TSCM induced by anti-CD3/CD28 stimulation (0.2 and 1 μg/mL), relative to unstimulated cells, previous treatment with vehicle control or the GSK3 inhibitor (n=3). F. Fold change in T-bet^+ cells among each CD8^+ T cell subpopulation induced by anti-CD3/CD28+ICAM-1 stimulation, relative to unstimulated cells (n=5). G. Frequency of IL-2^+TNF-α^+ cells among each CD8^+ T cell subpopulation after anti-CD3/CD28+ICAM-1 stimulation (n=5). H. Correlation between the frequency of PD-1^+LAG-3^+TIM3^+TIGIT^+CD8^+ T cells and the proportion of CD8^+ T cells with ≥4 cell divisions after restimulation (n=6). I. After reprogramming with the GSK3 inhibitor, CD8^+ T cells were left unstimulated, stimulated once for 48 hs with anti-CD3/CD28, or stimulated twice with anti-CD3/CD28. The expression of T-bet in TCM and TTM cells is shown (n=5). *P<0.05. […]
# GSK3 [6] = conditions: reference 42; cited from earlier work
# [7] = 12 hs at optimal dose, anti-CD3/anti-CD28 stimulation relative to unstimulated cells, symbols not defined
structure (smiles),measurement,setting,value
COc1ccc(CNC(=O)Nc2ncc([N+](=O)[O-])s2)cc1 [AR-A014418],frequency of pS6+pAKT+ cells / activation of mTORC pathway,[1],decreased
CN1CCN(S(=O)(=O)c2ccc(-c3cnc(N)c(C(=O)Nc4cccnc4)n3)cc2)CC1 [AZD 2858],Fold change in IFN-γ+ TNF-a+cells (relative to DMSO),human CD8+ T cells [2],+ +
same,Fold change in pS6+pAKT+cells (relative to DMSO),[1],+ +
O=C1Cc2c([nH]c3ccc([N+](=O)[O-])cc23)-c2ccccc2N1 [Alsterpaullone],Fold change in IFN-γ+ TNF-a+cells (relative to DMSO),human CD8+ T cells [2],+ +
same,IFN-γ+TNF-α+ cells (polyfunctionality) relative to vehicle control,human CD8+ T cells [2],increased
same,Fold change in pS6+pAKT+cells (relative to DMSO),[1],+ +
same,frequency of pS6+pAKT+ cells / activation of mTORC pathway,[1],activation of mTORC pathway
same,Fold change in % HLA+ CD38+,human CD8+ T cells [4]; [7],− −
"CC(=O)ON=C1C(=C2C(=O)Nc3cc(Br)ccc32)Nc2ccccc21 [Bio-acetoxime, 6-bromoindirubin-3′-acetoxime]",Fold change in IFN-γ+ TNF-a+cells (relative to DMSO),human CD8+ T cells [2],+ +
same,IFN-γ+TNF-α+ cells (polyfunctionality) relative to vehicle control,human CD8+ T cells [2],promoted
same,frequency of pS6+pAKT+ cells / activation of mTORC pathway,[1],lower frequency
same,CD127+ T-bet− phenotype,"human CD8+ T cells [4]; FIG. 12B, in words",preserved
same,"acquisition of T-bet, HLA-DR and CD38, PD-1 and LAG-3","human CD8+ T cells [4]; FIG. 12B, in words",restrained
same,phenotype / profile promoted in CD8+ T cells,"human CD8+ T cells [4]; FIG. 12B, in words",promoted a less-differentiated phenotype
OCCCNc1cc(-c2ccnc(Nc3cccc(Cl)c3)n2)ccn1 [CGP 60474],Fold change in % HLA+ CD38+,human CD8+ T cells [4]; [7],− −
NC1=N[C@H]2c3c([nH]c(Br)c3Br)C(=O)N3CCC[C@]23N1 [Dibromocantharelline],IC50,GSK3 [3],3000 nM
CN1CC[C@H](c2c(O)cc(O)c3c(=O)cc(-c4ccccc4Cl)oc23)[C@H](O)C1 [Flavopiridol hydrochloride hydrate],Fold change in % HLA+ CD38+,human CD8+ T cells [4]; [7],− −
same,Fold change in % Naive-TSCM,human CD8+ T cells [4]; [7],− −
same,Fold change in % TCM,human CD8+ T cells [4]; [7],− −
CN(C)CCCn1cc(C2=C(c3c[nH]c4ccccc34)C(=O)NC2=O)c2ccccc21 [GF 109203X],Fold change in % HLA+ CD38+,human CD8+ T cells [4]; [7],− −
O=C([O-])[O-].[Li+].[Li+] [Lithium carbonate],Fold change in % HLA+ CD38+,human CD8+ T cells [4]; [7],+ +
O[C@]12C=C(c3nccc4c3[nH]c3ccccc34)[C@@H]3CCN(CCCC/C=C\CC1)C[C@@]31C[C@@H]3/C=C\CCCCN3[C@H]12 [Manzamine A],IC50,GSK3 [3],1500 nM
COc1ccc(-c2ocnc2C(=O)NCCCn2cncn2)cc1Cl [PF-04802367],Fold change in IFN-γ+ TNF-a+cells (relative to DMSO),human CD8+ T cells [2],+ +
same,IFN-γ+TNF-α+ cells (polyfunctionality) relative to vehicle control,human CD8+ T cells [2],increased
same,Fold change in pS6+pAKT+cells (relative to DMSO),[1],+ +
same,frequency of pS6+pAKT+ cells / activation of mTORC pathway,[1],activation of mTORC pathway
COc1ccc2c(c1)/C(=C/c1cnc[nH]1)C(=O)N2 [SU 9516],Fold change in IFN-γ+ TNF-a+cells (relative to DMSO),human CD8+ T cells [2],+ +
same,IFN-γ+TNF-α+ cells (polyfunctionality) relative to vehicle control,human CD8+ T cells [2],increased
same,Fold change in pS6+pAKT+cells (relative to DMSO),[1],+ +
same,frequency of pS6+pAKT+ cells / activation of mTORC pathway,[1],activation of mTORC pathway
same,Fold change in % HLA+ CD38+,human CD8+ T cells [4]; [7],+ +
CN[C@@H]1C[C@H]2O[C@@](C)([C@@H]1OC)n1c3ccccc3c3c4c(c5c6ccccc6n2c5c31)C(=O)NC4 [Staurosporine],Fold change in % CD127+ T-bet−,human CD8+ T cells [4],+
same,Fold change in % HLA+ CD38+,human CD8+ T cells [4],−
same,Fold change in % LAG3+ PD1+,human CD8+ T cells [4],−
same,Fold change in % TTM,human CD8+ T cells [4],+
"Nc1cccc(-c2cc3c(Oc4cccc(O)c4)ncnc3[nH]2)c1 [TWS119, 3-[[6-(3-aminophenyl)-7H-pyrrolo[2,3-d]pyrimidin-4-yl]oxy]phenol]","CCR7, CD27, and TCF-1",[5]; FIG. 2B,induced
same,TEM cells,[5]; FIG. 2C,decrease
same,TSCM and TCM cells,[5]; FIG. 2C,increase
same,IC50,GSK3 [3],0.6 to 7 nM
same,selectivity of inhibition of GSK3,GSK3 [3],highly selective inhibitors
same,Wnt/β-catenin/TCF-1 pathway,GSK3 [6],induce the activation
O=c1sn(-c2cccc3ccccc23)c(=O)n1Cc1ccccc1 [Tideglusib (NP031112)],"frequencies of CD127− T-bet+ cells, and LAG-3+ PD-1+ cells","human CD8+ T cells [4]; FIG. 12B, in words",higher frequencies
same,phenotype / profile promoted in CD8+ T cells,"human CD8+ T cells [4]; FIG. 12B, in words",promoted an effector-like profile
[Zn+2] [Zinc],IC50,GSK3 [3],15000 nM
